In patent publication US20220089575A1, “FARNESOID X RECEPTOR AGONISTS AND USES THEREOF” (Metacrine, Inc., priority 2017, published 2022):

Molecular target: T1, hFXR (Homo sapiens, UniProt Q96RI1)
T1 construct: expressed in transfected cells; host or cells: CV-1 cells
T1 sequence (Q96RI1 1-486): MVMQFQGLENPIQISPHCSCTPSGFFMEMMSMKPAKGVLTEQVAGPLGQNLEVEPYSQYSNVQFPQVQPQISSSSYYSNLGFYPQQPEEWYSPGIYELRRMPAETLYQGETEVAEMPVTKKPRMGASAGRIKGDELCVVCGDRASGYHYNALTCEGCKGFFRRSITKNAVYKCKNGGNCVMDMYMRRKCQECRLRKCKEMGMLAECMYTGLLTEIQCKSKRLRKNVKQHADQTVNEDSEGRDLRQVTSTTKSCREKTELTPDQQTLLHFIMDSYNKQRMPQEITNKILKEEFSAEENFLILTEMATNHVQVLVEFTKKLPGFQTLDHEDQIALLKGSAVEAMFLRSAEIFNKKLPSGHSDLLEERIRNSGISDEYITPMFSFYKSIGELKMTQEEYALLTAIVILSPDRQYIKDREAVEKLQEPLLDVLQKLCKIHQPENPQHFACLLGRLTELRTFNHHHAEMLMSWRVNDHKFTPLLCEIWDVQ
T1 sequence (P19793 1-462 partner): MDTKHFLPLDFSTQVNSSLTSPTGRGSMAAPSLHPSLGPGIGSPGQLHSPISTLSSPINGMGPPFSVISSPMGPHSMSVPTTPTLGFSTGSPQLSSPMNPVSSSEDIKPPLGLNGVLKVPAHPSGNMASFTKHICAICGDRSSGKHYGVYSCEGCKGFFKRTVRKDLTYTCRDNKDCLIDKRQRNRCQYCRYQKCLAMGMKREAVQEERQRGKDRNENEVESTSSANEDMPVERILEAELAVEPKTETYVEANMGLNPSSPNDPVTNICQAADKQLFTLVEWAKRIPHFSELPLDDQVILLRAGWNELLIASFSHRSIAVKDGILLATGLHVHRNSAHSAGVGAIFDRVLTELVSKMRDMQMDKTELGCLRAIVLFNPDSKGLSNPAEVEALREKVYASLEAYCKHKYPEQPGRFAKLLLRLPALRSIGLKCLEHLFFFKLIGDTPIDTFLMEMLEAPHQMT
Assay: In Vitro FXR Assay (TK): TK-ECRE-luc reporter in transfected CV-1 cells
Type: cell-based
Settings: 18 hrs, luminescence, maximum efficacy of <25% of the Fexarmine control classified as '+'
Procedure, shortened: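 Luciferase read-out after 18 h compound exposure of CV-1 cells carrying transfected hFXR plus hRXR expression plasmids, TK-ECRE-luc reporter and pCMX-YFP. Cells cultured in charcoal-stripped FBS before transfection; compounds serially diluted in DMSO.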

SMILES | EC50 [nM]
COc1ccc([C@H]2CC[C@H](CN(c3cccc(-c4cnn(C5CC5)c4)c3)C(=O)[C@H]3CC[C@H](OC(=O)N4CC(S(C)(=O)=O)C4)CC3)CC2)cc1C [Compound 6.29, trans-4-((3-(1-Cyclopropyl-1H-pyrazol-4-yl)phenyl)((trans-4-(4-methoxy-3-methylphenyl)cyclohexyl)methyl)carbamoyl)cyclohexyl 3-(methylsulfonyl)azetidine-1-carboxylate] | ≤ 250
COCCNC(=O)O[C@H]1CC[C@H](C(=O)N(C[C@H]2CC[C@H](c3ccc(OC)c(C#N)c3)CC2)c2cc(-c3cnn(C(C)C)c3)ccn2)CC1 [Compound 6.34, trans-4-(((trans-4-(3-Cyano-4-methoxyphenyl)cyclohexyl)methyl)(4-(1-isopropyl-1H-pyrazol-4-yl)pyridin-2-yl)carbamoyl)cyclohexyl (2-methoxyethyl)carbamate] | ≤ 250
COc1ccc([C@H]2CC[C@H](CN(c3cc(-c4cnn(C(C)C)c4)ccn3)C(=O)[C@H]3CC[C@H](OC(=O)NC4CC4)CC3)CC2)nc1C [Compound 6.31, trans-4-((4-(1-Isopropyl-1H-pyrazol-4-yl)pyridin-2-yl)((trans-4-(5-methoxy-6-methylpyridin-2-yl)cyclohexyl)methyl)carbamoyl)cyclohexyl cyclopropylcarbamate] | ≤ 250
COc1ccc(C23CCC(CN(c4cccc(-c5cnn(C6CC6)c5)c4)C(=O)[C@H]4CC[C@H](OC(N)=O)CC4)(CC2)CC3)cc1C [Compound 1.08, 4-((3-(1-Cyclopropyl-1H-pyrazol-4-yl)phenyl)((4-(4-methoxy-3-methylphenyl)bicyclo[2.2.2]octan-1-yl)methyl)carbamoyl)cyclohexyl trans-carbamate] | ≤ 250
COc1ccc([C@H]2CC[C@H](CN(c3cccc(-c4cnn(C5CC5)c4)c3)C(=O)[C@H]3CC[C@H](C(=O)NCCO)CC3)CC2)cc1C [Compound 23, trans-N^1-(3-(1-Cyclopropyl-1H-pyrazol-4-yl)phenyl)-N^4-(2-hydroxyethyl)-N^1-((trans-4-(4-methoxy-3-methylphenyl)cyclohexyl)methyl)cyclohexane-1,4-dicarboxamide] | 250 to 1000
CNC(=O)O[C@H]1CC[C@H](C(=O)N(C[C@H]2CC[C@H](c3ccc(OC)c(C)n3)CC2)c2cc(-c3cnc(C(C)C)s3)ccn2)CC1 [Compound 5.04, trans-4-((4-(2-Isopropylthiazol-5-yl)pyridin-2-yl)((trans-4-(5-methoxy-6-methylpyridin-2-yl)cyclohexyl)methyl)carbamoyl)cyclohexyl methylcarbamate] | ≤ 250
COc1ccc([C@H]2CC[C@H](CN(c3cccc(-c4cnn(C5CC5)c4)c3)C(=O)[C@H]3CC[C@H](OC(=O)NCc4ncc[nH]4)CC3)CC2)cc1C [Compound 4.13, trans-4-((3-(1-Cyclopropyl-1H-pyrazol-4-yl)phenyl)((trans-4-(4-methoxy-3-methylphenyl)cyclohexyl)methyl)carbamoyl)cyclohexyl ((1H-imidazol-2-yl)methyl)carbamate] | ≤ 250
COC(=O)O[C@H]1CC[C@H](C(=O)N(C[C@H]2CC[C@H](c3ccc(OC)c(C)c3)CC2)c2cccc(-c3cnn(C4CC4)c3)c2)CC1 [Compound 1.07, trans-4-((3-(1-Cyclopropyl-1H-pyrazol-4-yl)phenyl)((trans-4-(4-methoxy-3-methylphenyl)cyclohexyl)methyl)carbamoyl)cyclohexyl methyl carbonate] | ≤ 250
COc1ccc([C@H]2CC[C@H](CN(c3cccc(-c4cnn(C5CC5)c4)c3)C(=O)[C@H]3CC[C@H](CO)CC3)CC2)cc1C [Compound 15, trans-N-(3-(1-Cyclopropyl-1H-pyrazol-4-yl)phenyl)-4-(hydroxymethyl)-N-((trans-4-(4-methoxy-3-methylphenyl)cyclohexyl)methyl) cyclohexanecarboxamide] | ≤ 250
COc1ccc([C@H]2CC[C@H](CN(c3cc(-c4coc(C5CC5)n4)ccn3)C(=O)[C@H]3CC[C@H](OC(=O)NC[C@@H](C)O)CC3)CC2)nc1C [Compound 6.95, trans-4-((4-(2-Cyclopropyloxazol-4-yl)pyridin-2-yl)((trans-4-(5-methoxy-6-methylpyridin-2-yl)cyclohexyl)methyl)carbamoyl)cyclohexyl ((R)-2-hydroxypropyl)carbamate] | ≤ 250

Continued, values first:

EC50 [nM] | SMILES
≤ 250 | CCc1nc(-c2ccnc(N(C[C@H]3CC[C@H](c4ccc(OC)c(C)n4)CC3)C(=O)[C@H]3CC[C@H](OC(=O)N4CC(O)C4)CC3)c2)co1 [Compound 7.109, trans-4-((4-(2-Ethyloxazol-4-yl)pyridin-2-yl)((trans-4-(5-methoxy-6-methylpyridin-2-yl)cyclohexyl)methyl)carbamoyl)cyclohexyl 3-hydroxyazetidine-1-carboxylate]
≤ 250 | COc1ccc([C@H]2CC[C@H](CN(c3cc(-c4cnn(C(C)C)c4)ccn3)C(=O)[C@H]3CC[C@H](OC(=O)N4CC(OC)C4)CC3)CC2)nc1C [Compound 7.55, trans-4-((4-(1-Isopropyl-1H-pyrazol-4-yl)pyridin-2-yl)((trans-4-(5-methoxy-6-methylpyridin-2-yl)cyclohexyl)methyl)carbamoyl)cyclohexyl 3-methoxyazetidine-1-carboxylate]
≤ 250 | COc1ccc([C@H]2CC[C@H](CN(c3cc(-c4cnn(C(C)C)c4)ccn3)C(=O)[C@H]3CC[C@H](CC(=O)O)CC3)CC2)cc1C [Compound 20.15, 2-(trans-4-((4-(1-Isopropyl-1H-pyrazol-4-yl)pyridin-2-yl)((trans-4-(4-methoxy-3-methylphenyl)cyclohexyl)methyl)carbamoyl)cyclohexyl)acetic acid]
≤ 250 | CN(C)c1ccc([C@H]2CC[C@H](CN(c3cccc(-c4coc(C5CC5)n4)c3)C(=O)[C@H]3CC[C@H](OC(=O)N4CC(O)C4)CC3)CC2)cn1 [Compound 7.63, trans-4-((3-(2-Cyclopropyloxazol-4-yl)phenyl)((trans-4-(6-(dimethylamino)pyridine-3-yl)cyclohexyl)methyl)carbamoyl)cyclohexyl 3-hydroxyazetidine-1-carboxylate]
≤ 250 | CN(C)c1ccc([C@H]2CC[C@H](CN(c3cccc(-c4cnc(C5CC5)s4)c3)C(=O)[C@H]3CC[C@H](OC(=O)N4CC(O)C4)CC3)CC2)cn1 [Compound 7.01, trans-4-((3-(2-Cyclopropylthiazol-5-yl)phenyl)((trans-4-(6-(dimethylamino)pyridin-3-yl)cyclohexyl)methyl)carbamoyl)cyclohexyl 3-hydroxyazetidine-1-carboxylate]
≤ 250 | COc1ccc([C@H]2CC[C@H](CN(c3cccc(-c4cnc(C5CC5)s4)c3)C(=O)[C@H]3CC[C@H](OC(=O)N4CC(O)C4)CC3)CC2)nc1C#N [Compound 7.09, trans-4-(((trans-4-(6-Cyano-5-methoxypyridin-2-yl)cyclohexyl)methyl)(3-(2-cyclopropylthiazol-5-yl)phenyl)carbamoyl)cyclohexyl 3-hydroxyazetidine-1-carboxylate]
≤ 250 | CCOC(=O)C[C@H]1CC[C@H](C(=O)N(C[C@H]2CC[C@H](c3ccc(OC)c(C)n3)CC2)c2cc(-c3cnn(C(C)C)c3)ccn2)CC1 [Compound 18.20, Ethyl 2-(trans-4-((4-(1-isopropyl-1H-pyrazol-4-yl)pyridin-2-yl)((trans-4-(5-methoxy-6-methylpyridin-2-yl)cyclohexyl)methyl)carbamoyl)cyclohexyl)acetate]
≤ 250 | COc1ccc([C@H]2CC[C@H](CN(c3cc(-c4coc(C5CC5)n4)ccn3)C(=O)[C@H]3CC[C@H](CC(=O)O)CC3)CC2)nc1C [Compound 21.07, 2-(trans-4-((4-(2-Cyclopropyloxazol-4-yl)pyridin-2-yl)((trans-4-(5-methoxy-6-methylpyridin-2-yl)cyclohexyl)methyl)carbamoyl)cyclohexyl) acetic acid]
≤ 250 | COc1ccc([C@H]2CC[C@H](CN(c3cc(-c4coc(C(C)C)n4)ccn3)C(=O)[C@H]3CC[C@H](OC(=O)N4CC(OC(C)C)C4)CC3)CC2)nc1C [Compound 7.83, trans-4-((4-(2-Isopropyloxazol-4-yl)pyridin-2-yl)((trans-4-(5-methoxy-6-methylpyridin-2-yl)cyclohexyl)methyl)carbamoyl)cyclohexyl 3-isopropoxyazetidine-1-carboxylate]
≤ 250 | COc1ccc([C@H]2CC[C@H](CN(c3cccc(-c4cnn(C5CC5)c4)c3)C(=O)[C@H]3CC[C@H](OC(=O)NCCNC(C)=O)CC3)CC2)cc1C [Compound 26.23, trans-4-((3-(1-Cyclopropyl-1H-pyrazol-4-yl)phenyl)((trans-4-(4-methoxy-3-methylphenyl)cyclohexyl)methyl)carbamoyl)cyclohexyl (2-acetamidoethyl)carbamate]
